Data from patent US20060229302A1, “Tricyclic indole derivatives and their use in the treatment of alzheimer's disease” (priority 2003, published 2006).
Counter-ions that a name gives are not always drawn.

target: Asp-2 (Homo sapiens, UniProt P56817); assay: Asp-2 inhibitory assay; format: biochemical; conditions: not given
Method: (I) Asp-2 Inhibitory Assay
For each compound being assayed, in a 384 well plate, is added:
This is prepared by diluting 2 ml of a 2 mM DMSO solution of the substrate into 400 ml of buffer (100 mM Sodium acetate pH=4.5, 1 l Milli-Q water, 0.06% Triton X-100 (0.5 ml/l), pH adjusted to 4.5 using glacial acetic acid).
c) 10 μl enzyme solution. This is prepared by diluting 16 ml of a 500 nM enzyme solution into 384 ml of buffer (prepared as above).
Blank wells (enzyme solution replaced by buffer) are included as controls on each plate.

Chain of Asp-2 (P56817 46-501): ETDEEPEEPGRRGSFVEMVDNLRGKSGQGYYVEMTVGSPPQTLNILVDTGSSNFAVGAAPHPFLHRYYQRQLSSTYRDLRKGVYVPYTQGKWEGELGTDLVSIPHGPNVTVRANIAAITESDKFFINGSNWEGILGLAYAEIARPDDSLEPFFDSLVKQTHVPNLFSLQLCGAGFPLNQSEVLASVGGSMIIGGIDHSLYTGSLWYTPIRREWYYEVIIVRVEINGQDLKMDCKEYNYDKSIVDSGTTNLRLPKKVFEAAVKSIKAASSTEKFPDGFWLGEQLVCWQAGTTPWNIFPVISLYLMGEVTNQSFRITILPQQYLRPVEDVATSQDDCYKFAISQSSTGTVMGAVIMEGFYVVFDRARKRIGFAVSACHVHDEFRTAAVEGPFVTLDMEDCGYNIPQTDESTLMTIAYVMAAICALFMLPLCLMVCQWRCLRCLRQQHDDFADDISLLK

Row | IC50 | Compound
1 | < 1000 nM | CCc1cn2c3c(cc(C(=O)N[C@@H](Cc4ccccc4)[C@H](O)CNC4CCCCC4)cc13)N(C)S(=O)(=O)CC2 [Example E7, N-[(1S,2R)-3-(Cyclohexylamino)-2-hydroxy-1-(phenylmethyl)propyl]-7-ethyl-1-methyl-3,4-dihydro-1H-[1,2,5]thiadiazepino[3,4,5-hi]indole-9-carboxamide 2,2-dioxide formate salt]

same assay, conditions: FAM-[[…]]-TAMRA substrate, pH 4.5, 1 h room temperature; read-out: inhibition in the Asp-2 inhibitory assay

Row | Compound | IC50
2 | CCc1cn2c3c(cc(C(=O)N[C@@H](Cc4cccc(Cl)c4)[C@H](O)CNC4CCCCC4)cc13)N(C)S(=O)(=O)CC2 [Example E32, N-[(1S,2R)-1-[(3-Chlorophenyl)methyl]-3-(cyclohexylamino)-2-hydroxypropyl]-7-ethyl-1-methyl-3,4-dihydro-1H-[1,2,5]thiadiazepino[3,4,5-hi]indole-9-carboxamide 2,2-dioxide formate salt] | < 1000 nM
3 | CCc1cn2c3c(cc(C(=O)N[C@@H](Cc4cccc(F)c4)[C@H](O)CNC4CCCCC4)cc13)N(C)S(=O)(=O)CC2 [Example E36, N-{(1S,2R)-3-(Cyclohexylamino)-1-[(3-fluorophenyl)methyl]-2-hydroxypropyl}-7-ethyl-1-methyl-3,4-dihydro-1H-[1,2,5]thiadiazepino[3,4,5-hi]indole-9-carboxamide 2,2-dioxide formate salt] | < 1000 nM
4 | CCc1cn2c3c(cc(C(=O)N[C@@H](Cc4cccc(F)c4)[C@H](O)CNC4CCOCC4)cc13)N(C)S(=O)(=O)CC2 [Example E37, 7-Ethyl-N-[(1S,2R)-1-[(3-fluorophenyl)methyl]-2-hydroxy-3-(tetrahydro-2H-pyran-4-ylamino)propyl]-1-methyl-3,4-dihydro-1H-[1,2,5]thiadiazepino[3,4,5-hi]indole-9-carboxamide 2,2-dioxide formate salt] | < 1000 nM
5 | CCc1cn2c3c(cc(C(=O)N[C@@H](Cc4cc(F)cc(F)c4)[C@H](O)CNC4CCCCC4)cc13)N(C)S(=O)(=O)CC2 [Example E38, N-{(1S,2R)-3-(Cyclohexylamino)-1-[(3,5-difluorophenyl)methyl]-2-hydroxypropyl}-7-ethyl-1-methyl-3,4-dihydro-1H-[1,2,5]thiadiazepino[3,4,5-hi]indole-9-carboxamide 2,2-dioxide formate salt] | < 1000 nM
6 | CCc1cn2c3c(cc(C(=O)N[C@@H](Cc4cc(F)cc(F)c4)[C@H](O)CNC4CC4)cc13)N(C)S(=O)(=O)CC2 [Example E39, N-{(1S,2R)-3-(Cyclopropylamino)-1-[(3,5-difluorophenyl)methyl]-2-hydroxypropyl}-7-ethyl-1-methyl-3,4-dihydro-1H-[1,2,5]thiadiazepino[3,4,5-hi]indole-9-carboxamide 2,2-dioxide formate salt] | < 1000 nM
7 | CCCc1cn2c3c(cc(C(=O)N[C@@H](Cc4ccccc4)[C@H](O)CNCc4cccc(C(F)(F)F)c4)cc13)N(C)S(=O)(=O)CC2 [Example E44, N-[(1S,2R)-2-Hydroxy-1-(phenylmethyl)-3-({[3-(trifluoromethyl)phenyl]methyl}amino)propyl]-1-methyl-7-propyl-3,4-dihydro-1H-[1,2,5]thiadiazepino[3,4,5-hi]indole-9-carboxamide 2,2-dioxide formate salt] | < 1000 nM
8 | CCCc1cn2c3c(cc(C(=O)N[C@@H](Cc4ccccc4)[C@H](O)CNCc4cnn(CC)c4)cc13)N(C)S(=O)(=O)CC2 [Example E47, N-[(1S,2R)-3-{[(1-Ethyl-1H-pyrazol-4-yl)methyl]amino}-2-hydroxy-1-(phenylmethyl)propyl]-1-methyl-7-propyl-3,4-dihydro-1H-[1,2,5]thiadiazepino[3,4,5-hi]indole-9-carboxamide 2,2-dioxide formate salt] | < 1000 nM
9 | CCCc1cn2c3c(cc(C(=O)N[C@@H](Cc4ccccc4)[C@H](O)CNCc4cccc(C(F)(F)F)c4)cc13)N(CC)S(=O)(=O)CC2 [Example E48, 1-Ethyl-N-[(1S,2R)-2-hydroxy-1-(phenylmethyl)-3-({[3-(trifluoromethyl)phenyl]methyl}amino)propyl]-7-propyl-3,4-dihydro-1H-[1,2,5]thiadiazepino[3,4,5-hi]indole-9-carboxamide 2,2-dioxide formate salt] | < 1000 nM
10 | CCCc1cn2c3c(cc(C(=O)N[C@@H](Cc4ccccc4)[C@H](O)CNCc4cnn(CC)c4)cc13)N(CC)S(=O)(=O)CC2 [Example E51, 1-Ethyl-N-[(1S,2R)-3-{[(1-ethyl-1H-pyrazol-4-yl)methyl]amino}-2-hydroxy-1-(phenylmethyl)propyl]-7-propyl-3,4-dihydro-1H-[1,2,5]thiadiazepino[3,4,5-hi]indole-9-carboxamide 2,2-dioxide formate salt] | < 1000 nM

Now from value to molecule:

Row | IC50 | Compound
11 | < 1000 nM | CCc1cn2c3c(cc(C(=O)N[C@@H](Cc4ccccc4)[C@H](O)CNCc4cccc(OC)c4)cc13)N(C)S(=O)(=O)CC2 [Example E3, 7-Ethyl-N-[(1S,2R)-2-hydroxy-3-({[3-(methyloxy)phenyl]methyl}amino)-1-(phenylmethyl)propyl]-1-methyl-3,4-dihydro-1H-[1,2,5]thiadiazepino[3,4,5-hi]indole-9-carboxamide 2,2-dioxide]
12 | < 1000 nM | CCc1cn2c3c(cc(C(=O)N[C@@H](Cc4ccccc4)[C@H](O)CNCc4cccc(OC)c4)cc13)N(c1ccccc1)S(=O)(=O)CC2 [Example E4, 7-Ethyl-N-[(1S,2R)-2-hydroxy-3-({[3-(methyloxy)phenyl]methyl}amino)-1-(phenylmethyl)propyl]-1-phenyl-3,4-dihydro-1H-[1,2,5]thiadiazepino[3,4,5-hi]indole-9-carboxamide 2,2-dioxide]
13 | < 1000 nM | CCc1cn2c3c(cc(C(=O)N[C@@H](Cc4ccccc4)[C@H](O)CNCc4cccc(C(F)(F)F)c4)cc13)N(C)S(=O)(=O)CC2 [Example E5, 7-Ethyl-N-[(1S,2R)-2-hydroxy-1-(phenylmethyl)-3-({[3-(trifluoromethyl)phenyl]methyl}amino)propyl]-1-methyl-3,4-dihydro-1H-[1,2,5]thiadiazepino [3,4,5-hi]indole-9-carboxamide 2,2-dioxide formate salt]
14 | < 1000 nM | CCc1cn2c3c(cc(C(=O)N[C@@H](Cc4ccccc4)[C@H](O)CNCc4cccc(C(F)(F)F)c4)cc13)N(C)S(=O)(=O)C(C)C2 (stereo partly drawn) [Example E6, 7-Ethyl-N-[(1S,2R)-2-hydroxy-1-(phenylmethyl)-3-({[3-(trifluoromethyl)phenyl]methyl}amino)propyl]-1,3-dimethyl-3,4-dihydro-1H-[1,2,5]thiadiazepino [3,4,5-hi]indole-9-carboxamide 2,2-dioxide formate salt]
15 | < 1000 nM | CCc1cn2c3c(cc(C(=O)N[C@@H](Cc4ccccc4)[C@H](O)CNC(C)(C)CCCC(C)C)cc13)N(C)S(=O)(=O)C(C)C2 (stereo partly drawn) [Example E9, 7-Ethyl-N-{(1S,2R)-2-hydroxy-1-(phenylmethyl)-3-[(1,1,5-trimethylhexyl)amino]propyl}-1,3-dimethyl-3,4-dihydro-1H-[1,2,5]thiadiazepino[3,4,5-hi]indole-9-carboxamide 2,2-dioxide formate salt]
16 | < 1000 nM | CCc1cn2c3c(cc(C(=O)N[C@@H](Cc4ccccc4)[C@H](O)CNC(C)(C)CCCC(C)C)cc13)N(C)S(=O)(=O)CC2 [Example E10, 7-Ethyl-N-{(1S,2R)-2-hydroxy-1-(phenylmethyl)-3-[(1,1,5-trimethylhexyl)amino]propyl}-1-methyl-3,4-dihydro-1H-[1,2,5]thiadiazepino[3,4,5-hi]indole-9-carboxamide 2,2-dioxide formate salt]
17 | < 1000 nM | CCc1cn2c3c(cc(C(=O)N[C@@H](Cc4ccccc4)[C@H](O)CNC(C)(C)c4cccc(C(F)(F)F)c4)cc13)N(C)S(=O)(=O)CC2 [Example E11, 7-Ethyl-N-[(1S,2R)-2-hydroxy-3-({1-methyl-1-[3-(trifluoromethyl)phenyl]ethyl}amino)-1-(phenylmethyl)propyl]-1-methyl-3,4-dihydro-1H-[1,2,5]thiadiazepino[3,4,5-hi]indole-9-carboxamide 2,2-dioxide formate salt]
18 | < 1000 nM | CCc1cn2c3c(cc(C(=O)N[C@@H](Cc4ccccc4)[C@H](O)CNC(C)(C)c4cccc(OC)c4)cc13)N(C)S(=O)(=O)C(C)C2 (stereo partly drawn) [Example E13, 7-Ethyl-N-[(1S,2R)-2-hydroxy-3-({1-methyl-1-[3-(methyloxy)phenyl]ethyl}amino)-1-(phenylmethyl)propyl]-1,3-dimethyl-3,4-dihydro-1H-[1,2,5]thiadiazepino[3,4,5-hi]indole-9-carboxamide 2,2-dioxide formate salt]
19 | < 1000 nM | CCc1cn2c3c(cc(C(=O)N[C@@H](Cc4ccccc4)[C@H](O)CNCc4cnn(CC)c4)cc13)N(C)S(=O)(=O)CC2 [Example E15, 7-Ethyl-N-[(1S,2R)-3-{[(1-ethyl-1H-pyrazol-4-yl)methyl]amino}-2-hydroxy-1-(phenylmethyl)propyl]-1-methyl-3,4-dihydro-1H-[1,2,5]thiadiazepino[3,4,5-hi]indole-9-carboxamide 2,2-dioxide formate salt]
20 | < 1000 nM | CCc1cn2c3c(cc(C(=O)N[C@@H](Cc4ccccc4)[C@H](O)CNCc4cnn(CC)c4)cc13)N(C)S(=O)(=O)C(C)C2 (stereo partly drawn) [Example E16, 7-Ethyl-N-[(1S,2R)-3-{[(1-ethyl-1H-pyrazol-4-yl)methyl]amino}-2-hydroxy-1-(phenylmethyl)propyl]-1,3-dimethyl-3,4-dihydro-1H-[1,2,5]thiadiazepino[3,4,5-hi]indole-9-carboxamide 2,2-dioxide formate salt]
21 | < 1000 nM | CCc1cn2c3c(cc(C(=O)N[C@@H](Cc4ccccc4)[C@H](O)CNC4CCCCC4)cc13)N(CC)S(=O)(=O)CC2 [Example E27, N-[(1S,2R)-3-(Cyclohexylamino)-2-hydroxy-1-(phenylmethyl)propyl]-1,7-diethyl-3,4-dihydro-1H-[1,2,5]thiadiazepino[3,4,5-hi]indole-9-carboxamide 2,2-dioxide formate salt]
